Assay results from patent US11299467B2 (Antabio SAS, priority 2017, dated 2022).
Where two headings read alike, the source gives them in different places.

How the values were obtained:
Format in all cases: biochemical
NDM-1 = NDM-1 (Klebsiella pneumoniae, UniProt C7C422); assay: In vitro enzyme inhibition assay, purified NDM-1 (imipenem hydrolysis, UV 299 nm)
Description: (§1) Enzyme inhibition assays were performed using purified MBL enzymes (NDM-1; VIM-1; VIM-2; IMP-1) in 10 mM HEPES buffer pH 7.5 in 96-well microtiter plates. Imipenem (300 μM) was used as substrate and its hydrolysis was followed at UV 299 nm during 10 mn every 30 seconds using a Perkin Elmer Envision UV fluorescence plate reader.
(§2) Mean Ki values from multiple experiments are presented below.
(§3) Studies were undertaken to compare the compounds of the invention with structurally similar compounds (“Comp. x”). Experiments were conducted as described above.

VIM-2 = VIM-2 (Escherichia coli, UniProt Q5U7L7); assay: In vitro enzyme inhibition assay, purified VIM-2 (imipenem hydrolysis, UV 299 nm)
Description: as §1, §2, §3

VIM-1 = VIM-1 (Pseudomonas aeruginosa, UniProt A0A0F7KYQ8); assay: In vitro enzyme inhibition assay, purified VIM-1 (imipenem hydrolysis, UV 299 nm)
Description: as §1, §2, §3

IMP-1 = IMP-1 (Serratia marcescens, UniProt P52699); assay: In vitro enzyme inhibition assay, purified IMP-1 (imipenem hydrolysis, UV 299 nm)
Description: as §1, §2, §3

[1] = mean Ki from multiple experiments, imipenem 300 μM, Cheng-Prusoff from IC50, read-out: Ki NDM-1
[2] = mean Ki from multiple experiments, imipenem 300 μM, Cheng-Prusoff from IC50, read-out: Ki VIM-2
[3] = mean Ki from multiple experiments, imipenem 300 μM, Cheng-Prusoff from IC50, read-out: Ki VIM-1
[4] = mean Ki from multiple experiments, imipenem 300 μM, Cheng-Prusoff from IC50, read-out: Ki IMP-1

IMP-1, sequence (P52699 19-246, looked up, species assumed): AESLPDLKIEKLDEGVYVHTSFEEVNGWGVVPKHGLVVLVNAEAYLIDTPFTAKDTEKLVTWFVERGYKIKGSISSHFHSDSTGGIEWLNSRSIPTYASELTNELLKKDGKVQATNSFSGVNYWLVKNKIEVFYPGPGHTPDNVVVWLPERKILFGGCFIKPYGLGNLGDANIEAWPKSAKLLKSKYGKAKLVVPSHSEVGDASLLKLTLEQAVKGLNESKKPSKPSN
NDM-1, sequence (C7C422 29-270, looked up): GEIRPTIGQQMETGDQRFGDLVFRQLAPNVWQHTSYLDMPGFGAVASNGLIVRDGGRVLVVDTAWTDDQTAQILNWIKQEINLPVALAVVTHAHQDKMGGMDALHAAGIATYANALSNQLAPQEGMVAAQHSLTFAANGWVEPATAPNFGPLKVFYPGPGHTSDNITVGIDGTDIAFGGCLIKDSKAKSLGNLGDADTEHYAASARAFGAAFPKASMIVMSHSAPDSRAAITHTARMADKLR

SMILES	Ki (NDM-1; [1])	Ki (VIM-2; [2])	Ki (VIM-1; [3])	Ki (IMP-1; [4])	Ki (NDM-1; comparative study bands, read-out: Ki NDM-1 (comparative study))	Ki (VIM-2; comparative study bands, read-out: Ki VIM-2 (comparative study))	Ki (VIM-1; comparative study bands, read-out: Ki VIM-1 (comparative study))	Ki (IMP-1; comparative study bands, read-out: Ki IMP-1 (comparative study))
N=C(N)NC(=O)Nc1ccc(S(=O)(=O)Nc2scnc2C(=O)O)cc1F [Example 28, 5-[[4-(carbamimidoylcarbamoyl-amino)-3-fluoro-phenyl]sulfonylamino] thiazole-4-carboxylic acid]	50 to 200 nM	< 20 nM	< 200 nM	< 500 nM	–	–	–	–
N=C(N)NNC(=O)Nc1ccc(S(=O)(=O)Nc2scnc2C(=O)O)cc1F [Example 29, 5-[[3-fluoro-4-(guanidinocarbamoylamino)phenyl]sulfonylamino]thiazole-4-carboxylic acid]	< 50 nM	20 to 50 nM	200 to 500 nM	1000 to 10000 nM	< 30 nM	20 to 50 nM	150 to 300 nM	600 to 5000 nM
N=C(N)CNC(=O)Nc1ccc(S(=O)(=O)Nc2scnc2C(=O)O)cc1F [Example 30, 5-[[4-[(2-amino-2-imino-ethyl)carbamoylamino]-3-fluoro-phenyl]sulfonylamino]thiazole-4-carboxylic acid]	< 50 nM	20 to 50 nM	200 to 500 nM	1000 to 10000 nM	–	–	–	–
N=C(N)NCCSC(=O)Nc1ccc(S(=O)(=O)Nc2scnc2C(=O)O)cc1F [Example 31, 5-[[3-fluoro-4-(2-guanidinoethylsulfanyl-carbonylamino)phenyl]sulfonylamino]thiazole-4-carboxylic acid]	< 50 nM	20 to 50 nM	< 200 nM	< 500 nM	–	–	–	–
O=C(CNC1=NCCN1)Nc1ccc(S(=O)(=O)Nc2scnc2C(=O)O)cc1F [Example 32]	50 to 200 nM	20 to 50 nM	200 to 500 nM	1000 to 10000 nM	–	–	–	–
N#CNC(=N)NCC(=O)Nc1ccc(S(=O)(=O)Nc2scnc2C(=O)O)cc1F [Example 34, 5-[[4-[[2-[(N-cyanocarbamimidoyl)amino]acetyl]amino]-3-fluoro-phenyl]sulfonylamino]thiazole-4-carboxylic acid]	< 50 nM	20 to 50 nM	500 to 1000 nM	< 500 nM	–	–	–	–
N=C(N)CCC(=O)Nc1ccc(S(=O)(=O)Nc2scnc2C(=O)O)cc1F [Example 35, 5-[[4-[(4-amino-4-imino-butanoyl)amino]-3-fluoro-phenyl]sulfonylamino]thiazole-4-carboxylic acid]	< 50 nM	20 to 50 nM	< 200 nM	500 to 1000 nM	–	–	–	–
O=C(CCC1=NCCN1)Nc1ccc(S(=O)(=O)Nc2scnc2C(=O)O)cc1F [Example 36, 5-[[4-[3-(4,5-dihydro-1H-imidazol-2-yl)propanoylamino]-3-fluoro-phenyl]sulfonylamino]thiazole-4-carboxylic acid]	< 50 nM	50 to 150 nM	200 to 500 nM	1000 to 10000 nM	–	–	–	–
N=C(NCCN)NCC(=O)Nc1ccc(S(=O)(=O)Nc2scnc2C(=O)O)cc1F [Example 39, 5-[[4-[[2-[[N-(2-aminoethyl)carbamimidoyl]amino]acetyl]amino]-3-fluoro-phenyl]sulfonylamino]thiazole-4-carboxylic acid]	200 to 2000 nM	20 to 50 nM	< 200 nM	1000 to 10000 nM	–	–	–	–
N=C(N)NNCC(=O)Nc1ccc(S(=O)(=O)Nc2scnc2C(=O)O)cc1F [Example 41, 5-[[4-[[2-(2-carbamimidoylhydrazino)acetyl]amino]-3-fluoro-phenyl]sulfonylamino]thiazole-4-carboxylic acid]	< 50 nM	20 to 50 nM	200 to 500 nM	500 to 1000 nM	–	–	–	–
N=C(N)Nc1ccc(S(=O)(=O)Nc2scnc2C(=O)O)cc1 [Example 44, 5-[(4-guanidinophenyl)sulfonylamino]thiazole-4-carboxylic acid]	200 to 2000 nM	50 to 150 nM	200 to 500 nM	1000 to 10000 nM	–	–	–	–
N=C(N)NCC(=O)NCc1ccc(S(=O)(=O)Nc2scnc2C(=O)O)cc1F [Example 45, 5-[[3-fluoro-4-[[(2-guanidinoacetyl)amino]methyl]phenyl]sulfonylamino]thiazole-4-carboxylic acid]	200 to 2000 nM	50 to 150 nM	500 to 1000 nM	1000 to 10000 nM	–	–	–	–
N=C(N)NCc1ccc(S(=O)(=O)Nc2scnc2C(=O)O)cc1F [Example 46, 5-[[3-fluoro-4-(guanidinomethyl)phenyl]sulfonylamino]thiazole-4-carboxylic acid]	50 to 200 nM	50 to 150 nM	200 to 500 nM	1000 to 10000 nM	–	–	–	–
